Measured values from US20220232831A1, “NOVEL NON-CODING HETEROCYCLIC AMINO ACIDS (NCHAA) AND THEIR USE AS HERBICIDES” (Fortephest Ltd., priority 2019, published 2022).

How the values were obtained:
[1] = test system: Romaine lettuce (Lactuca sativa L.) plants; experiment: Post-emergency herbicidal activity on Romaine lettuce plants; assay type: in vivo; settings: Romaine lettuce at stage 2 to 3 leaves; compound in 0.1% Silwet, up to 0.5%; visual evaluation vs control plants
Procedure: The tests were performed on Romaine lettuce (Lactuca sativa L.) plants at the stage 2 to 3 leaves. The plants were grown on 300 well trays packed with soil, well dimensions 2×2×5 cm. Each compound was dissolved in 0.1% water solution of agronomically acceptable surfactant Silwet to final concentrations ranging from 0.0% (Control) to 0.5%. Two weeks after the treatment the herbicidal effects of the respective test material were visually evaluated by a comparison with the control plants. In addition, the aboveground part of the plant was neatly cut and weighed (wet weight). Each test was performed on 20 to 40 plants. The degree of growth inhibition and damage was evaluated according to the parameters in Table 2. Plant development at 7, 14, and 21 DAA (days after application) were evaluated on a scale of 0 to 100, in which score 0 represents dead plants and score 100 represents healthy plants according to plant vigor, height, and leaf color. Each test included 20 to 40 plants.

[2] = test system: Seeds of Lettuce R. (Super-Jericho); experiment: Filter paper bioassay with lettuce seeds (germination and early plant development); assay type: in vivo; settings: lettuce seeds on filter paper; 1, 0.1, 0.01, 0.001 mM; radicle and shoots assessed after 6 days
Procedure: Seeds of Lettuce R. (Super-Jericho, non-sterilized) were obtained from Ben Shahar Moshe Ltd., 99% purity.
Filter Paper Bioassays with Lettuce Seeds:
The protocol is following Bertin et al. 2009 and Movellan et al. 2014 with specified modifications as described below.
Seeds were placed on Whatman no. 1 filter paper (Whatman, Middlesex, U.K.) in Petri dishes (10 seeds per plate) supplemented with 2.0 ml of water (Control) or with a solution comprising 1 mM, 0.1 mM, 0.01 mM and 0.001 mM of test material. Petri dishes with seeds were placed in a tray at an angle of 45°. The trays were kept in dark for 48 hours and then transferred to the growth chamber (22° C., 0.045 mmol×m−2×s−1 photosynthetic photon flux density; 6/18 dark/light cycle) for additional 4 days. Each experiment was performed at least in two repeats. The development of radicle and shoots of experimental and control plants were visually assessed 6 days after the beginning of the test to determine Minimal Effective Concentration (MEC) of test material. In the context of the invention, MEC is defined as the lowest concentration level of a test material that caused deviation (absence of germination or malformation of radicle and shoots) from the plant's development in the Control group.

Compound | post-emergency herbicidal activity (Activity Index: plant's development vs Control) [1] | Minimal Effective Concentration (MEC) as activity score, seeds germination & early plants development [2]
COCCOCCOC(=O)C(N)Cc1ccsc1 (stereo not shown) [Code 570] | Very Strong (From 15 to 25) | Maximal (0.01 mM and less)
CCCCOC(=O)C(Cc1nsc(Cl)n1)NC(C)=O (stereo not shown) [Code 595] | Strong (From 25 to 50) | Strong (0.1 mM)
NC(Cc1cc(=O)[nH]cn1)C(=O)O (stereo not shown) [Code 645] | Weak (More than 75) | Weak (More than 1 mM)
CCCOCCOC(=O)C(N)CNS(=O)(=O)c1cc(Cl)sc1Cl (stereo not shown) [Code 525] | Weak (More than 75) | Weak (More than 1 mM)
NC(Cc1c(F)cncc1F)C(=O)O (stereo not shown) [Code 630] | Strong (From 25 to 50) | Moderate (1 mM)
NC(Cc1ccncc1)C(=O)O (stereo not shown) [Code 602] | Moderate (From 50 to 75) | Strong (0.1 mM)
COCCOCCOC(=O)C(N)Cc1ccc(Br)nc1 (stereo not shown) [Code 674] | Moderate (From 50 to 75) | Strong (0.1 mM)
CCCOC(=O)C(N)Cc1c(F)cnc(Br)c1F (stereo not shown) [Code 656] | Very Strong (From 15 to 25) | Strong (0.1 mM)
NC(Cc1cc(=O)[nH]c(=O)[nH]1)C(=O)O (stereo not shown) [Code 652] | Weak (More than 75) | Weak (More than 1 mM)
NC(Cc1cnc(O)c([N+](=O)[O-])c1)C(=O)O (stereo not shown) [Code 665] | Weak (More than 75) | Moderate (1 mM)
NC(Cc1cncc(F)c1)C(=O)O (stereo not shown) [Code 626] | Strong (From 25 to 50) | Strong (0.1 mM)
COC(=O)C(N)Cc1ccsc1 (stereo not shown) [Code 546] | Very Strong (From 15 to 25) | Maximal (0.01 mM and less)
NC(Cc1cncnc1)C(=O)O (stereo not shown) [Code 614] | Weak (More than 75) | Weak (More than 1 mM)
NC(Cc1ccsc1Cl)C(=O)O (stereo not shown) [Code 516] | Maximal (Less than 15) | Maximal (0.01 mM and less)
NC(Cc1ccc(=O)[nH]c1)C(=O)O (stereo not shown) [Code 650] | Weak (More than 75) | Moderate (1 mM)
NC(Cc1ccc[n+](O)c1)C(=O)O (stereo not shown) [Code 668] | Weak (More than 75) | Weak (More than 1 mM)
CC1=CC(CC(N)C(=O)O)=C(C)S1(=O)=O (stereo not shown) [Code 564] | Weak (More than 75) | Weak (More than 1 mM)
COC(=O)C(N)Cc1cc(Br)nc(Br)c1 (stereo not shown) [Code 670] | Very Strong (From 15 to 25) | Strong (0.1 mM)
N#Cc1cc(C[C@H](N)C(=O)O)cs1 [Code 509] | Maximal (Less than 15) | Strong (0.1 mM)
NC(CNS(=O)(=O)c1ccnc(Br)c1)C(=O)O (stereo not shown) [Code 657] | Weak (More than 75) | Weak (More than 1 mM)
C[n+]1cccc(CC(N)C(=O)O)c1 (stereo not shown) [Code 667] | Weak (More than 75) | Weak (More than 1 mM)

Compound | post-emergency herbicidal activity (Activity Index: plant's development vs Control) [1] | Minimal Effective Concentration (MEC) as activity score, seeds germination & early plants development [2]
NC(Cc1ccc[nH]c1=O)C(=O)O (stereo not shown) [Code 644] | Weak (More than 75) | Weak (More than 1 mM)
NC(Cc1cc(C(F)(F)F)cnc1Cl)C(=O)O (stereo not shown) [Code 663] | Moderate (From 50 to 75) | Strong (0.1 mM)
NC(Cc1cc[nH]c(=O)c1)C(=O)O (stereo not shown) [Code 642] | Weak (More than 75) | Weak (More than 1 mM)
NC(Cc1cocn1)C(=O)O (stereo not shown) [Code 542] | Weak (More than 75) | Weak (More than 1 mM)
Nc1ncc(CC(N)C(=O)O)c(=O)[nH]1 (stereo not shown) [Code 664] | Weak (More than 75) | Moderate (1 mM)
Nc1cc(Cl)nc(CC(N)C(=O)O)n1 (stereo not shown) [Code 616] | Weak (More than 75) | Weak (More than 1 mM)
CCOC(=O)C(N)Cc1cnc(Br)c(Br)c1 (stereo not shown) [Code 661] | Moderate (From 50 to 75) | Maximal (0.01 mM and less)
NC(CC1CCSC1)C(=O)O (stereo not shown) [Code 562] | Weak (More than 75) | Weak (More than 1 mM)
NC(Cc1ccncn1)C(=O)O (stereo not shown) [Code 625] | Weak (More than 75) | Moderate (1 mM)
NC(Cc1ccc[nH]1)C(=O)O (stereo not shown) [Code 703] | Weak (More than 75) | Weak (More than 1 mM)
CCOC(=O)C(Cc1ccsc1)NC(C)=O (stereo not shown) [Code 571] | Very Strong (From 15 to 25) | Strong (0.1 mM)
NC(Cc1ccsc1)C(=O)O (stereo not shown) [Code 502] | Very Strong (From 15 to 25) | Maximal (0.01 mM and less)
CCOC(=O)C(N)Cc1cc(Cl)sc1Cl (stereo not shown) [Code 569] | Maximal (Less than 15) | Strong (0.1 mM)
CCOC(=O)C(Cc1cc(Cl)oc1Cl)NC(C)=O (stereo not shown) [Code 574] | Moderate (From 50 to 75) | Strong (0.1 mM)
NC(CNS(=O)(=O)c1ccsc1)C(=O)O (stereo not shown) [Code 504] | Weak (More than 75) | Weak (More than 1 mM)
Nc1cncc(CC(N)C(=O)O)c1 (stereo not shown) [Code 610] | Weak (More than 75) | Weak (More than 1 mM)
NC(Cc1cnc(Br)c(Br)c1)C(=O)O (stereo not shown) [Code 633] | Strong (From 25 to 50) | Strong (0.1 mM)
NC(Cc1ccnc(Br)c1Br)C(=O)O (stereo not shown) [Code 635] | Weak (More than 75) | Weak (More than 1 mM)
NC(Cc1cscc1C(F)(F)F)C(=O)O (stereo not shown) [Code 566] | Maximal (Less than 15) | Strong (0.1 mM)
Nc1cccc(CC(N)C(=O)O)n1 (stereo not shown) [Code 609] | Weak (More than 75) | Weak (More than 1 mM)
